Like-named read-outs stand apart in the source and are kept apart here.
How the values were obtained:
GABAA receptors [1] = test: GABAA receptor binding, [3H]-flunitrazepam displacement on rat brain membranes; conditions: n=6, read-out: GABAAR binding (IC50)
Description: Rat brain membranes are prepared from frozen tissue that was thawed on ice, homogenized on ice in 10 volumes of cold lysis buffer (50 mM Tris HCl, pH 7.4, containing protease inhibitor cocktail from Roche) using a Polytron homogenizer (6 pulses and 10 seconds per pulse). The homogenate is centrifuged at 1,000×g for 10 min at 4° C. to obtain supernatant. The supernatant is then centrifuged at 40,000×g for 20 min, and then the resulting supernatant is decanted and replaced with the same ice-cold lysis buffer. Two or three additional rounds of homogenization-centrifugation are performed to ensure thorough homogenization and also to wash out endogenous ligands. The final pellet is resuspended in the same buffer and homogenized one last time. The rat brain suspension is diluted in buffer (50 mM Tris HCl, 2.5 mM CaCl2), pH 7.4), followed by the addition of [3H]-flunitrazepam (0.6-4.0 nM in DMSO) and PI320 or PI310 in DMSO at different concentrations to reach a final of volume of 125 ul per well. GABAAR subtypes that bind flunitrazepam consist of α1-3,5,6β1-3γ1-3/δ GABAARs. Relative expression of GABAARs in the brain consist of 43% α1β2γ2, 15% α2β3γ2+8% α2βγ1, 10% α3β3γ2, 6% α4βγ/δ, 4% α5β3γ2, and 4% α6β2γ2/δ. […]
Total binding and nonspecific binding are determined with reference compound clonazepam. […] Scintillation cocktail is then melted onto the microwave-dried filters on a hot plate and radioactivity counted in a Microbeta counter. The data (n=6) are analyzed by nonlinear regression.
GABAA receptor binding: Rat brain membranes were prepared from frozen tissue that was thawed on ice and homogenized on ice in 10 volumes of cold lysis buffer (50 mM Tris HCl, pH 7.4, containing protease inhibitor cocktail; Roche) using a Polytron homogenizer (6 pulses and 10 seconds per pulse). […] Total binding and nonspecific binding were determined with reference compound clonazepam. […] Scintillation cocktail was then melted onto the microwave-dried filters on a hot plate and radioactivity counted in a Microbeta counter. The data (n=6) were analyzed by nonlinear regression.

[2] = test system: mice with INFγ/LPS induced lung inflammation; test: Steroid resistant mouse asthma model (INFγ/LPS), airway hyperresponsiveness sRaw after methacholine; format: in vivo; conditions: for reduction of AHR (sRAW) versus vehicle control: nebulized 7.2 mg/kg, prior to second and third methacholine application, p≤0.005
Description: Female A/J mice are purchased from Jackson Laboratory (Bar Harbor, ME) and female Swiss Webster mice are purchased from Charles River Laboratory (Wilmington, MA). Animals are given ad libitum access to food and water. Test drugs are prepared for nebulization as follows: a 3.0 mg/ml solution of albuterol (Millipore Sigma) is prepared in phosphate buffered saline (137 mM NaCl, 2.7 mM KCl, 10 mM Na2HPO4, and 1.8 mM KH2PO4) and PI320 is prepared as 3.2 mg/ml solution in water with 0.17% Tween-20. Airway hyperresponsiveness measurements, sRaw, are obtained using a Buxco FinePointe Non-Invasive Airway Mechanics instrument (DSI, St. Paul, MN) as described previously (ACS Pharmacol Transl Sci 3, 1381-1390).
Efficacy of control drug (albuterol) and PI320 are determined by reduction of sRAW in mice compared to vehicle treated control mice. Here, mouse lung inflammation is induced with INFγ and bacterial lipopolysaccharide (LPS) via intratracheal installation. Elevated levels of IFNγ in the lung are observed for neutrophilic asthma patients, which respond poorly to steroid treatment (Eur Respir J 11, 312-316). One contributing factor is the impaired nuclear translocation of the liganded glucocorticoid receptor in pulmonary macrophages (Am J Respir Crit Care Med 191, 54-62). LPS simulates a microbial infection leading to macrophage-mediated inflammatory response (J Immunol 185, 4401-4409).
The tracheal installation of INFγ/LPS increases airway hyper-responsiveness to an inhaled challenge agent as measured by sRAW, which is based on the breathing volume and frequency. The challenge agent, methacholine, is administered three times over 24 minutes resulting in sRAW of approximately 8.0 cmH2O*sec.

GABAA receptors [3] = conditions: literature value, ref [37]; read-out: reported IC50 (GABAAR binding); cited from earlier work
[4] = test system: Swiss Webster mice, MC903 challenge; test: MC903 mouse AD model, ear thickness; format: in vivo; conditions: 2 nmol topically on both ears, third week after MC903, p≤0.05 / p≤0.01
From the text: An established mouse model of AD is used to evaluate the efficacy of PI320 in reducing ear thickness following MC903 challenge (for background on the model see: J Invest Dermatol 138, 2606-2616 [28]; Proc Natl Acad Sci USA, 103, 11736-11741 [29]; Sci Transl Med, 5, 170ra116 [30]; J Invest Dermatol, 138, 1555-1563 [31]). Ear thickness is used as a measure of inflammation caused by the chemical irritant.
Briefly, commercially sourced female Swiss Webster mice (Charles River Laboratory, Wilmington, MA) at approximately seven weeks of age are used. Sixteen mice are housed under 7:00 AM-7:00 PM 12 h light cycle and administered 2 nmol MC903 on each ear on Monday, Wednesday and Friday for two weeks. The ear thickness increased from 0.3 mm to 0.7 mm during that time. During the third week, a group of eight mice were administered 2 nmol of PI320 topically on both ears (10 ul of a 100 uM solution in ethanol on each side of both ears). The control group received vehicle ethanol. Ear thickness is measured using calipers. […] See, FIG. 4.

[5] = test system: Swiss Webster mice with 3% Dextran sodium sulfate (DSS) induced ulcerative colitis; test: Inflammatory bowel disease model, 3% DSS induced ulcerative colitis, bodyweight; format: in vivo; conditions: 100 mg/kg daily in peanut butter, 3% DSS water
Description: (§1) Ten (10) week old female Swiss Webster mice were offered 3% Dextran sodium sulfate (DSS) water to induce ulcerative colitis. Group 1 (n=8) received daily peanut butter (200 mg) and group 2 (n=8) received 100 mg/kg PI320 in peanut butter. The animals were weighted daily. See, FIGS. 1A and 1B.

[6] = test system: colon MPO activity (Myeloperoxidase); test: MPO assay on whole colon homogenates of DSS mice; format: in vivo; conditions: 100 mg/kg daily in peanut butter, 3% DSS water
Description: as §1
MPO assay: Whole colons were homogenized in phosphate buffer and centrifuge at 10,000 rpm at 4° C. from 10 min. The protein concentration supernatant was determined with a BCA assay and adjusted to 200 μg/ml with the addition of phosphate buffer. A daily standard solution for the hydrogen peroxide solution was prepared to a concentration of 0.0024% from a 35% v/v stock. The phosphate buffer that was prepared for the BCA assay was utilized for the dilution step of this assay. O-dianisidine dihydrogen chloride was prepared at a concentration of 167 μg/mL in phosphate buffer and sonicated for 30 min to dissolve in the buffer. 8 µL of protein solution was transferred to a 384 well plate containing 62 μL of the o-dianisidine solution. The reaction is initiated with the addition of 10 μL of the hydrogen peroxide solution prepared above. […] The product of this reaction shifts the absorbance to the λmax to 460 nm. The plate is then measured over a 15 min period in the plate reader in 30 sec intervals. […]

[7] = test system: C57BL/6 mouse bladder strips with intact mucosa; test: Functional analysis in overactive bladder model, carbachol-contracted bladder strips; design: species or system mice; conditions: 10 uM carbachol, cumulatively increasing concentrations 1-100 uM
Description: C57BL/6 female mice (12 weeks, Harlan UK, Ltd) are euthanized by cervical dislocation. The bladder is removed after a midline laparotomy, the neck and trigone region cut away and the dome laid out as a sheet after an anterior wall incision. Strips with intact mucosa (5-7 mm length, 1-2 mm diameter) are dissected and tied in a horizontal trough between a fixed hook and an isometric force transducer. Preparations are superfused (3 ml·min−1) at 36° C. with Tyrode's solution. PI320 or DMSO vehicle are added to the superfusate and their effects on tension measured.
Unstimulated preparations are allowed to equilibrate under tension (20 mN) until a stable base-line is recorded. The preparation is exposed to 10 µM carbachol and peak and steady-state tension recorded. In the continued presence of carbachol the preparation is also exposed to P1320 in cumulatively increasing concentrations (1, 3, 10, […], 100 uM) until a new steady-state is achieved at each concentration. For vehicle controls DMSO is added in rising concentrations (0.01, 0.03, 0.1, 0.3, 1.0% (v/v)) after a steady-state contraction is achieved with carbachol.
Data are mean±SD; differences between multiple data sets were tested with repeated measures two-way ANOVA and Tukey post hoc tests.

Compound: COCCOCCNC(=O)C1N=CN2C3=C(CC(Br)C=C3)C(c3ccccc3F)=N[C@H](C)C12 (stereo partly drawn) [PI350]
- IC50 (GABAA receptors [1]): 58 nM

Compound: CC(C)(C)NCC(O)c1ccc(O)c(CO)c1 (stereo not drawn) [albuterol, reference compound]
- reduction of AHR (sRAW) versus vehicle control [2]: statistically significant reductions

Compound: C[C@H]1N=C(c2ccccc2F)c2cc(Br)ccc2-n2cnc(C(=O)O)c21 [MIDD0301, (R)-8-bromo-6-(2-fluorophenyl)-4-methyl-4H-benzo[f]imidazo[1,5-a][1,4]diazepine-3-carboxylic acid]
- IC50 (GABAA receptors [3]): 72 nM

Compound: COCCOCCOCCOCCOCCNC(=O)c1ncn2c1[C@@H](C)N=C(c1ccccc1F)c1cc(Br)ccc1-2 [PI320, (R)-8-bromo-6-(2-fluorophenyl)-N-(2,5,8,11,14-pentaoxahexadecan-16-yl)-4-methyl-4H-benzo[f]imidazo[1,5-a][1,4]diazepine-3-carboxamide]
- ear thickness versus vehicle control [4]: significantly reduces ear thickness
- IC50 (GABAA receptors [1]): 242 nM
- change of bodyweight in comparison to the initial weight ([5]; days 6 and 7): small drop in weight
- change of bodyweight ([5]; from day 2): regained weight on day 2
- colon Myeloperoxidase (MPO) level versus vehicle group [6]: greatly reduced
- contraction force of bladder strips versus DMSO controls [7]: concentration-dependent reduction of force
- reduction of methacholine induced airway hyper-responsiveness compared with albuterol ([2]; administered via inhalation): at least as effective as albuterol
- reduction of AHR (sRAW) versus vehicle control [2]: statistically significant reductions

Compound: COCCOCCOCCOCCNC(=O)C1N=CN2C3=C(CC(Br)C=C3)C(c3ccccc3F)=N[C@H](C)C12 (stereo partly drawn) [PI352]
- IC50 (GABAA receptors [1]): 38 nM
